From patent US12410171B2, “Tropomyosin receptor kinase (TRK) degradation compounds and methods of use” (Cullgen (Shanghai), Inc., priority 2020, dated 2025)

Each compound was assayed against T1, TPM3-TRKA fusion protein (Homo sapiens, UniProt P04629) (assay: TPM3-TRKA fusion protein levels in KM12 cells (Western blot)). Conditions: 16 h; TPM3-TRKA degradation in KM12 cells at 10 nM compound, category of percentage degradation; read-out: Degradation (at 10 nM).
T1 construct: The resulted chimeric proteins always retain the kinase domain of TRK proteins; TPM3 (fusion partner, N-terminal part of tropomyosin alpha-3, P06753); endogenous in cells; host or cells: KM12 colon cancer cells; the other entry of the earlier key: TPM3 (P06753, Tropomyosin alpha-3 chain)
T1 sequence (P04629 with tags, fused parts or gaps): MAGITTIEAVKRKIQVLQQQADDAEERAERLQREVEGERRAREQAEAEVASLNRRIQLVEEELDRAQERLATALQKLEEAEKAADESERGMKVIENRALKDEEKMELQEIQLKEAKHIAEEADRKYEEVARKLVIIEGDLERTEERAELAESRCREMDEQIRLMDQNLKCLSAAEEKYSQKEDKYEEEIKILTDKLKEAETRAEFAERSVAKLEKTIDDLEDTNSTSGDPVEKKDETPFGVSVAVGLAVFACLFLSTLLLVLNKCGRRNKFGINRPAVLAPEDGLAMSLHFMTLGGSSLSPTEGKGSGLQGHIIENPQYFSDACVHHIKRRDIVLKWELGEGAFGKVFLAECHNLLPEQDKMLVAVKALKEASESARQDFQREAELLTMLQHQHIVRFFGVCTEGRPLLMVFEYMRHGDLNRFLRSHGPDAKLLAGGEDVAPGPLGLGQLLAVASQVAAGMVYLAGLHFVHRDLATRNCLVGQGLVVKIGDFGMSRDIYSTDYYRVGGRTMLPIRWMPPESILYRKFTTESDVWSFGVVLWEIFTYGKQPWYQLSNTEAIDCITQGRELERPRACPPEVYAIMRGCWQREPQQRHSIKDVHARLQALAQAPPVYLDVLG
Assay type: cell-based
How it was run: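 KM12 colon cancer cells were treated with DMSO or compounds at 0.1–100 nM, 0.4–30 nM or other stated concentrations for 4, 8–16 or 16 h. RIPA lysates were BCA-normalized and resolved by SDS-PAGE. TPM3-TRKA was detected by chemiluminescent Western blot, with bands quantified by densitometry.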
Compound O=C(CN1CCN(c2cccc(-c3cnc4ccc(N5CCC[C@@H]5c5cccc(F)c5)nn34)n2)CC1)NCCOCCOCCOCCOCCOCCNc1ccc2c(c1)C(=O)N(C1CCC(=O)NC1=O)C2=O (stereo partly drawn) [TR-132, N-(17-((2-(2,6-dioxopiperidin-3-yl)-1,3-dioxoisoindolin-5-yl)amino)-3,6,9,12,15-pentaoxaheptadecyl)-2-(4-(6-(6-((R)-2-(3-fluorophenyl)pyrrolidin-1-yl)imidazo[1,2-b]pyridazin-3-yl)pyridin-2-yl)piperazin-1-yl)acetamide] has a percent degradation of TPM3-TRKA protein at 0.01 µM greater than 80%. O=C1CCC(N2C(=O)c3ccc(NCCCCC(=O)N4CCN(c5ccc(C(=O)Nc6n[nH]c7ccc(Cc8cc(F)cc(F)c8)cc67)c(NC6CCOCC6)c5)CC4)cc3C2=O)C(=O)N1 (stereo not shown) [TR-142, N-(5-(3,5-Difluorobenzyl)-1H-indazol-3-yl)-4-(4-(5-((2-(2,6-dioxopiperidin-3-yl)-1,3-dioxoisoindolin-5-yl)amino)pentanoyl)piperazin-1-yl)-2-((tetrahydro-2H-pyran-4-yl)amino)benzamide] gave a percent degradation of TPM3-TRKA protein at 0.01 µM greater than 80%. In the case of O=C(CN1CCN(c2cccc(-c3cnc4ccc(N5CCC[C@@H]5c5cccc(F)c5)nn34)n2)CC1)NCCCCNc1cccc2c1C(=O)N(C1CCC(=O)NC1=O)C2=O (stereo partly drawn) [TR-107, N-(4-((2-(2,6-dioxopiperidin-3-yl)-1,3-dioxoisoindolin-4-yl)amino)butyl)-2-(4-(6-(6-((R)-2-(3-fluorophenyl)pyrrolidin-1-yl)imidazo[1,2-b]pyridazin-3-yl)pyridin-2-yl)piperazin-1-yl)acetamide], the percent degradation of TPM3-TRKA protein at 0.01 µM is reported as greater than 80%. O=C1CCC(N2C(=O)c3cccc(NCCOCCOCCOCCOCCOCCC(=O)N4CCN(c5ccc(C(=O)Nc6n[nH]c7ccc(Cc8cc(F)cc(F)c8)cc67)c(NC6CCOCC6)c5)CC4)c3C2=O)C(=O)N1 (stereo not shown) [CPD-054, N-(5-(3,5-Difluorobenzyl)-1H-indazol-3-yl)-4-(4-(1-((2-(2,6-dioxopiperidin-3-yl)-1,3-dioxoisoindolin-4-yl)amino)-3,6,9,12, 15-pentaoxaoctadecan-18-oyl)piperazin-1-yl)-2-((tetrahydro-2H-pyran-4-yl)amino)benzamide] showed a percent degradation of TPM3-TRKA protein at 0.01 µM greater than 80%. In the case of O=C1CCC(N2C(=O)c3ccc(NCCOCCOCCC(=O)N4CCN(c5cccc(-c6cnc7ccc(N8CCC[C@@H]8c8cccc(F)c8)nn67)n5)CC4)cc3C2=O)C(=O)N1 (stereo partly drawn) [TR-113, 2-(2,6-Dioxopiperidin-3-yl)-5-((2-(2-(3-(4-(6-(6-((R)-2˜ (3-fluorophenyl)pyrrolidin-1-yl)imidazo[1,2-b]pyridazin-3-yl)pyridin-2-yl)piperazin-1-yl)-3-oxopropoxy)ethoxy)ethyl)amino) isoindoline-1,3-dione], the percent degradation of TPM3-TRKA protein at 0.01 µM is reported as greater than 80%. In the case of O=C(CN1CCN(c2ccc(C(=O)Nc3n[nH]c4ccc(Cc5cc(F)cc(F)c5)cc34)c(NC3CCOCC3)c2)CC1)NCCOCCOCCOCCNc1ccc2c(c1)C(=O)N(C1CCC(=O)NC1=O)C2=O (stereo not drawn) [TR-163, N—(S-(3,5-Difluorobenzyl)-1H-indazol-3-yl)-4-(4-(14-((2-(2,6-dioxopiperidin-3-yl)-1,3-dioxoisoindolin-5-yl)amino)-2-oxo-6,9,12-trioxa-3-azatetradecyl)piperazin-1-yl)-2˜ ((tetrahydro-2H-pyran-4-yl)amino)benzamide], the percent degradation of TPM3-TRKA protein at 0.01 µM is reported as greater than 80%. O=C1CCC(N2C(=O)c3ccc(NCCOCCC(=O)N4CCN(c5ccc(C(=O)Nc6n[nH]c7ccc(Cc8cc(F)cc(F)c8)cc67)c(NC6CCOCC6)c5)CC4)cc3C2=O)C(=O)N1 (stereo not shown) [TR-143] showed a percent degradation of TPM3-TRKA protein at 0.01 µM greater than 80%. Work on Cc1ncsc1-c1ccc(CNC(=O)[C@@H]2C[C@@H](O)CN2C(=O)[C@@H](NC(=O)CCCCCCCCCC(=O)N2CCN(c3ccc(C(=O)Nc4n[nH]c5ccc(Cc6cc(F)cc(F)c6)cc45)c(NC4CCOCC4)c3)CC2)C(C)(C)C)cc1 [CPD-035, (25,4R)-1-((S)-2-(11-(4-(4-((5-(3,5-Difluorobenzyl)-1H-indazol-3-yl)carbamoyl)-3-((tetrahydro-2H-pyran-4-yl)amino)phenyl)piperazin-1-yl)-11-oxoundecanamido)-3,3-dimethylbutanoyl)-4-hydroxy-N-(4-(4-methylthiazol-5-yl)benzyl)pyrrolidine-2-carboxamide] yielded a percent degradation of TPM3-TRKA protein at 0.01 µM of less than 50%. For O=C(CN1CCN(c2cccc(-c3cnc4ccc(N5CCC[C@@H]5c5cccc(F)c5)nn34)n2)CC1)NCCOCCOCCOCCNc1cccc2c1C(=O)N(C1CCC(=O)NC1=O)C2=O (stereo partly drawn) [CPD-059, N-(2-(2-(2-(2-((2-(2,6-Dioxopiperidin-3-yl)-1,3-dioxoisoindolin-4-yl)amino)ethoxy)ethoxy)ethoxy)ethyl)-2-(4-(6-(6-((R)-2-(3-fluorophenyl)pyrrolidin-1-yl)imidazo[1,2-b]pyridazin-3-yl)pyridin-2-yl)piperazin-1-yl)acetamide], the percent degradation of TPM3-TRKA protein at 0.01 µM was greater than 80%. For O=C(CN1CCN(c2ccc(C(=O)Nc3n[nH]c4ccc(Cc5cc(F)cc(F)c5)cc34)c(NC3CCOCC3)c2)CC1)NCCOCCNc1ccc2c(c1)C(=O)N(C1CCC(=O)NC1=O)C2=O (stereo not shown) [TR-161, N-(5-(3,5-Difluorobenzyl)-1H-indazol-3-yl)-4-(4-(2-((2-(2-((2-(2,6-dioxopiperidin-3-yl)-1,3-dioxoisoindolin-5-yl)amino)ethoxy)ethyl)amino)-2-oxoethyl)piperazin-1-yl)-2-((tetrahydro-2H-pyran-4-yl)amino)benzamide], the percent degradation of TPM3-TRKA protein at 0.01 µM was greater than 80%. O=C(CN1CCN(c2cccc(-c3cnc4ccc(N5CCC[C@@H]5c5cccc(F)c5)nn34)n2)CC1)NCCNc1cccc2c1C(=O)N(C1CCC(=O)NC1=O)C2=O (stereo partly drawn) [CPD-060, N-(2-((2˜ (2,6-Dioxopiperidin-3-yl)-1,3-dioxoisoindolin-4-yl)amino)ethyl)-2-(4-(6-(6-((R)-2-(3-fluorophenyl)pyrrolidin-1-yl)imidazo[1,2-b]pyridazin-3-yl)pyridin-2-yl)piperazin-1-yl)acetamide] gave a percent degradation of TPM3-TRKA protein at 0.01 µM greater than 80%. Work on O=C1CCC(N2C(=O)c3ccc(NCCOCCOCCOCCOCCOCCC(=O)N4CCN(c5ccc(C(=O)Nc6n[nH]c7ccc(Cc8cc(F)cc(F)c8)cc67)c(NC6CCOCC6)c5)CC4)cc3C2=O)C(=O)N1 (stereo not shown) [TR-137, N-(5-(3,5-Difluorobenzyl)-1H-indazol-3-yl)-4-(4-(1-((2-(2,6-dioxopiperidin-3-yl)-1,3-dioxoisoindolin-5-yl)amino)-3,6,9, 12, 15-pentaoxaoctadecan-18-oyl)piperazin-1-yl)-2-((tetrahydro-2H-pyran-4-yl)amino)benzamide] yielded a percent degradation of TPM3-TRKA protein at 0.01 µM greater than 80%. For Cn1c(=O)n(C2CCC(=O)NC2=O)c2cccc(NCCN3CCN(c4cccc(-c5cnc6ccc(N7CCC[C@@H]7c7cccc(F)c7)nn56)n4)CC3)c21 (stereo partly drawn) [TR-216, 3-[4-[2-[4-[6-[6-[(2R)-2-(3-Fluorophenyl)pyrrolidin-1-yl]imidazo[1,2-b]pyridazin-3-yl]-2-pyridyl]piperazin-1-yl]ethylamino]-3-methyl-2-oxo-benzimidazol-1-yl]piperidine-2,6-dione], the percent degradation of TPM3-TRKA protein at 0.01 µM was greater than 80%. O=C1CCC(N2C(=O)c3cccc(NCCOCCOCCOCCOCCOCCC(=O)N4CCN(c5cccc(-c6cnc7ccc(N8CCC[C@@H]8c8cccc(F)c8)nn67)n5)CC4)c3C2=O)C(=O)N1 (stereo partly drawn) [CPD-025, 2-(2,6-Dioxopiperidin-3-yl)-4-((18-(4-(6-(6-((R)-2-(3-fluorophenyl)pyrrolidin-1-yl)imidazo[1,2-b]pyridazin-3-yl)pyridin-2-yl)piperazin-1-yl)-18-oxo-3,6,9,12,15-pentaoxaoctadecyl)amino) isoindoline-1,3-dione] gave a percent degradation of TPM3-TRKA protein at 0.01 µM greater than 80%. Cn1c(=O)n(C2CCC(=O)NC2=O)c2cccc(NCCCN3CCN(c4cccc(-c5cnc6ccc(N7CCC[C@@H]7c7cccc(F)c7)nn56)n4)CC3)c21 (stereo partly drawn) [TR-217, 3-[4-[3-[4-[6-[6-[(2R)-2-(3-Fluorophenyl)pyrrolidin-1-yl]imidazo[1,2-b]pyridazin-3-yl]-2-pyridyl]piperazin-1-yl]propylamino]-3-methyl-2-oxo-benzimidazol-1-yl]piperidine-2,6-dione] was tested, and the percent degradation of TPM3-TRKA protein at 0.01 µM was greater than 80%. Work on O=C1CCC(N2C(=O)c3ccc(CCN4CCN(c5cccc(-c6cnc7ccc(N8CCC[C@@H]8c8cccc(F)c8)nn67)n5)CC4)cc3C2=O)C(=O)N1 (stereo partly drawn) [TR-204, 2-(2,6-dioxopiperidin-3-yl)-5-(2-(4-(6-(6-((R)-2-(3-fluorophenyl)pyrrolidin-1-yl)imidazo[1,2-6]pyridazin-3-yl)pyridin-2-yl)piperazin-1-yl)ethyl)isoindoline-1,3-dione] yielded a percent degradation of TPM3-TRKA protein at 0.01 µM greater than 80%. O=C1CCC(N2C(=O)c3cccc(NCCCCCCCC(=O)N4CCN(c5ccc(C(=O)Nc6n[nH]c7ccc(Cc8cc(F)cc(F)c8)cc67)c(NC6CCOCC6)c5)CC4)c3C2=O)C(=O)N1 (stereo not shown) [CPD-052, N-(5-(3,5-Difluorobenzyl)-1H-indazol-3-yl)-4-(4-(8-((2-(2,6-dioxopiperidin-3-yl)-1,3-dioxoisoindolin-4-yl)amino)octanoyl)piperazin-1-yl)-2-((tetrahydro-2H-pyran-4-yl)amino)benzamide] showed a percent degradation of TPM3-TRKA protein at 0.01 µM greater than 80%.

Same assay, conditions: KM12, 16 h, read-out: Degradation (at 10 nM)
With O=C1CCC(N2C(=O)c3ccc(N4CCC(N5CCN(c6cccc(-c7cnc8ccc(N9CCC[C@@H]9c9cccc(F)c9)nn78)n6)CC5)CC4)cc3C2=O)C(=O)N1 (stereo partly drawn) [TR-182, 2-(2,6-dioxopiperidin-3-yl)-5-(4-(4-(6-(6-((R)-2-(3-fluorophenyl)pyrrolidin-1-yl)imidazo[1,2-b]pyridazin-3-yl)pyridin-2-yl)piperazin-1-yl)piperidin-1-yl)isoindoline-1,3-dione] the percent degradation of TPM3-TRKA protein at 0.01 µM was greater than 80%.

Same assay, conditions: KM12 cells, 100 nM, indicated incubation time, Western blot (FIG. 2)
In the case of O=C(CN1CCN(c2cccc(-c3cnc4ccc(N5CCC[C@@H]5c5cccc(F)c5)nn34)n2)CC1)NCCNc1cccc2c1C(=O)N(C1CCC(=O)NC1=O)C2=O (stereo partly drawn) [CPD-060, N-(2-((2˜ (2,6-Dioxopiperidin-3-yl)-1,3-dioxoisoindolin-4-yl)amino)ethyl)-2-(4-(6-(6-((R)-2-(3-fluorophenyl)pyrrolidin-1-yl)imidazo[1,2-b]pyridazin-3-yl)pyridin-2-yl)piperazin-1-yl)acetamide], the TPM3-TRKA protein levels is reported as “rapidly reduced TPM3-TRKA protein levels”.
